Structures are written as SMILES.

Assay type in all cases: biochemical
For experiment [1], the target named is T1, recombinant human factor VIIa / recombinant human Tissue Factor complex (Homo sapiens, UniProt P08709).
T1 construct: purchased American Diagnostica Inc, Greenwich, Conn
Kind of experiment: Anti factor VIIa/tissue factor assay (amidolysis of Pefachrome VIIa). The following applies: for percentage inhibition, anti factor VIIa/tissue factor activity: single point, at a concentration of 1×10^−5 M. The text has this: III. Anti Factor VIIa/Tissue Factor Assay
Vascular damage initiates a series of enzyme generation reactions ultimately leading to the formation of a fibrin gel at the site of the injury. The primary enzyme generation reaction is the generation of activated factor VII (VIIa) from proenzyme factor VII. This activation reaction takes place by an as yet unknown mechanism. […] The activated Factor VII then also binds to membrane-bound TF and this […] tenase complex next converts Factor X into Factor Xa.
Thrombosis develops when there is insufficient control of the coagulation reaction. One way to restore this control is by inhibiting essential coagulation enzymes such as for instance the complex of membrane-bound TF and Factor VIIa. […] A method is described by which the inhibitory potency of compounds towards VIIa/TF complex can be established. Test compounds are mixed at various concentrations with factor VIIa and TF and with a chromogenic substrate, which is known to be split far better by TF-bound VIIa than by free VIIa. The amidolytic reaction taking place is continuously monitored in a microtiter plate reader. Inhibitory potency of the compounds investigated is expressed by the IC50, defined as the concentration of compounds yielding 50% inhibition of the amidolytic reaction, ninety minutes after the start of the reaction.
A ten times concentrated Hepes buffer made by dissolving 29.40 g CaCl2.2H2O, 47.66 g Hepes, 87.66 g NaCl and 30.00 g polyethyleneglycol (PEG) MW=6000 in 1000 ml aqua bidest. After the solution has been heated to 37° C., the pH of the buffer is set on 7.40 with help of 10 molar NaOH. The concentrated buffer solution is stored at 4° C. and is stable for at least two months at this condition. Prior to use the buffer is diluted in aqua bidest. 1 to 8 to obtain a final concentration in the wells (See test procedure) of 20 mM CaCl2, 20 mM Hepes, 150 mM NaCl and 0.3% PEG6000. If compounds are dissolved and diluted in aqua bidest. or another vehicle because of an insufficient solubility the Hepes buffer can be diluted 1 to 6 to preserve the same ionic strength in the test.
Recombinant Human Factor VIIa
Recombinant human factor VIIa is obtained from American Diagnostica Inc, Greenwich, Conn. Each vial contains 1.2 mg recombinant human factor VIIa, which is lyophilized from 2 ml buffer composed of 10 mM glycylglycine, 50 mM NaCl, 10 mM CaCl2, 30 mg/ml mannitol, 0.1% Tween, pH 5.5. The contents of each of these vials is reconstituted with 2 ml aqua bidest. as indicated by the manufacturer. The 2 ml 1.2*10^−5 stock solution thus obtained is divided in smaller fractions, which are stored at −30° C. At this condition these VIIa samples are stable for at least 6 months.
Recombinant Human Tissue Factor
Recombinant human Tissue Factor is obtained from American Diagnostica Inc, Greenwich, Conn. Each vial contains 25 μg recombinant human Tissue Factor (non-lipidated, MW 35000 Dalton), which is lyophilized from 1 ml Tris/HCl buffer (pH 8.0) composed of 150 mM NaCl, 200 mM mannitol and 10 mM CHAPS (Steroid derivative used to solubilize membrane proteins; see Merck Index). The contents of each vial is reconstituted with 1 ml aqua bidest. as indicated by the manufacturer. The 1 ml 7.14×10^−7 M stock solution thus obtained is divided in smaller fractions, which are stored at −30° C. Thus stored these VIIa samples are stable for at least 67 months. […]

Experiment [2] has as its target T2, Bovine Factor Xa Human (Bos taurus, UniProt P00743).
T2 construct: purchased Kabi Diagnostica
The experiment can be described thus: Anti-factor Xa assay (hydrolysis of chromogenic substrate S-2222). The following applies: S-2222, TNP buffer, 37° C. The protocol:
Activated Factor X (Xa) is a factor in the coagulation cascade. The anti-Xa activity of compounds of the present invention was assessed by measuring spectrophotometrically the rate of hydrolysis of the chromogenic substrate s-2222 exterted by Xa. This assay for anti-Xa activity in a buffer system was used to assess the IC50-value of the test compound.
In general the followed procedure and test conditions were analogous to those of the anti-thrombin assay as described above. Differences are indicated below.
Reference compound: benzamidine
Solubilisation can be assisted with dimethylsulfoxide, methanol, ethanol, acetonitrile or tert.-butyl alcohol which are without adverse effects in concentrations up to 1% (for DMSO) and 2.5% (for the other solvents) in the final reaction mixture.
One vial S-2222 (15 mg; Kabi Diagnostica, Sweden) is dissolved in 10 ml water to give a concentration of 1.5 mg.ml^−1 (2 mmol.l^−1).
Bovine Factor Xa Human (71 nKat.vial^−1, Kabi Diagnostica) is dissolved in 10 ml TNP buffer and then further diluted with 30 ml TNP buffer to give a concentration of 1.77 nKat.ml^−1. The dilution has to be freshly prepared.
Instead of the S-2238 solution (in anti-thrombin assay), the above S-2222 solution is added to each well in this assay.

Experiment [3] concerns the target T3, Human thrombin (Homo sapiens, UniProt P00734).
T3 construct: purchased Centraal Laboratorium voor Bloedtransfusie, Amsterdam, The Netherlands
The experiment can be described thus: Anti-thrombin assay (hydrolysis of chromogenic substrate S-2238). The following applies: S-2238, TNP buffer, 37° C., read-out: IC50, antithrombin activity. The protocol:
Thrombin (Factor […]) is a factor in the coagulation cascade.
The anti-thrombin activity of compounds of the present invention was assessed by measuring spectrophotometrically the rate of hydrolysis of the chromogenic substrate s-2238 exterted by thrombin. This assay for anti-thrombin activity in a buffer system was used to assess the IC50-value of a test compound.
Test medium: Tromethamine-NaCl-polyethylene glycol 6000 (TNP) buffer
Reference compound: 12581 (Kabi)
Solubilisation can be assisted with dimethylsulfoxide, methanol, ethanol, acetonitrile or tert.-butyl alcohol which are without adverse effects in concentrations up to 2.5% in the final reaction mixture.
1. Tromethamine-NaCl (TN) buffer
Composition of the buffer:
The pH of the solution is adjusted to 7.4 at 37° C. with HCl (10 mmol.l^−1).
Polyethylene glycol 6000 is dissolved in TN buffer to give a concentration of 3 g.l^−1.
One vial S-2238 (25 mg; Kabi Diagnostica, Sweden) is dissolved in 20 ml TN buffer to give a concentration of 1.25 mg.ml^−1 (2 mmol.l^−1).
Human thrombin (16 000 nKat.vial^−1; Centraal Laboratorium voor Bloedtransfusie, Amsterdam, The Netherlands) is dissolved in TNP buffer to give a stock solution of 835 nKat.ml^−1.
Immediately before use this solution is diluted with TNP buffer to give a concentration of 3.34 nKat.ml^−1.
All ingredients used are of analytical grade
For aqueous solutions ultrapure water (Milli-Q quality) is used.
Preparation of Test and Reference Compound Solutions
The test and reference compounds are dissolved in Milli-Q water to give stock concentrations of 10^−2 mol.l^−1. Each concentration is stepwise diluted with the vehicle to give concentrations of […], 10^−4 and 10^−5 mol.l^−1. The dilutions, including the stock solution, are used in the assay (final concentrations in the reaction mixture: 3·10^−3; 10^−3; 3·10^−4; 10^−4; 3·10^−5; 10^−5, 3·10^−6 and 10^−6 mol.l^−1, respectively).
At room temperature 0.075 ml and 0.025 ml test compound or reference compound solutions or vehicle are alternately pipetted into the wells of a microtiter plate and these solutions are diluted with 0.115 ml and 0.0165 ml TNP buffer, respectively. […] Starting after 1 min of incubation, the absorbance of each sample at 405 nm is measured every 2 min. for a period of 90 min. using a kinetic microtiter plate reader (Twinreader plus, Flow Laboratories).
All data are collected in an IBM personal computer using LOTUS-MEASURE. For each compound concentration (expressed in mol.l^−1 reaction mixture) and for the blank the absorbance is plotted versus the reaction time in min.
Evaluation of responses: For each final concentration the maximum absorbance was calculated from the assay plot. […]

T1 sequence (P08709 213-466 limits assumed): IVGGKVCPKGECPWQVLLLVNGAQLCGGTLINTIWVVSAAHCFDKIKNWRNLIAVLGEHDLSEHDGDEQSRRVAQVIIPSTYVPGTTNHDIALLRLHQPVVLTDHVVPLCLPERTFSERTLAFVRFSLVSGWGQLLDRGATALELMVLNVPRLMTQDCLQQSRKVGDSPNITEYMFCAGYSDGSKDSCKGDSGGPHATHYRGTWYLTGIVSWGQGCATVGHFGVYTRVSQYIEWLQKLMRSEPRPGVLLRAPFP
T1 sequence (P08709 61-212 limits assumed): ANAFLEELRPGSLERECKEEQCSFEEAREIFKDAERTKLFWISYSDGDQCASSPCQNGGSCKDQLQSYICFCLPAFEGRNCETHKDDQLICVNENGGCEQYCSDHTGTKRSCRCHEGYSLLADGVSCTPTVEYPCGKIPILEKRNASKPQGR
T1 sequence (P13726 33-295 partner): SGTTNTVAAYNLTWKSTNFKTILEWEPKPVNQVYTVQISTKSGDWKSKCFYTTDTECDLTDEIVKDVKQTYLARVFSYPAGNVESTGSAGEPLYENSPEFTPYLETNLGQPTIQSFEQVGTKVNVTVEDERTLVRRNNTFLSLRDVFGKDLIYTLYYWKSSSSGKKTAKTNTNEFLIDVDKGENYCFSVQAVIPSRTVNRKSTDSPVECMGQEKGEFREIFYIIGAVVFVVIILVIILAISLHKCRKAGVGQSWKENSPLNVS
T2 sequence (P00743 234-492 limits assumed): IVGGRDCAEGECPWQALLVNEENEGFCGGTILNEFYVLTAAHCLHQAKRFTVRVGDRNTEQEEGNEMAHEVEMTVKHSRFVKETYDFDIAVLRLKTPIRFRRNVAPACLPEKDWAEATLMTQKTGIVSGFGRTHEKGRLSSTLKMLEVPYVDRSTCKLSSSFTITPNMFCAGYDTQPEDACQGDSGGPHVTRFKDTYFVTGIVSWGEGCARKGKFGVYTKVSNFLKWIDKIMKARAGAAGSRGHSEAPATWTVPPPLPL
T2 sequence (P00743 41-180 limits assumed): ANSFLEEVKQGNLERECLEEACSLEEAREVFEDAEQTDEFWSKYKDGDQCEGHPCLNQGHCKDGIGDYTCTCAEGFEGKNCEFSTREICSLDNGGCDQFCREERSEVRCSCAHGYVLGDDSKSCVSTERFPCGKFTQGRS

`CCS(=O)(=O)N[C@@H](CC(N)=O)C(=O)N[C@@H](CC(C)C)C(=O)N[C@@H](CCCCN)C(=O)C(=O)OC(C)C` [EtSO2-Asn-Leu-LysΨ[COCO]-O-iPropyl]: the “percentage inhibition, anti factor VIIa/tissue factor activity” value in experiment [1] amounted to 56%. Still for that read-out and setting: to `CCS(=O)(=O)N1Cc2ccccc2C[C@@H]1C(=O)N[C@@H](Cc1ccccc1)C(=O)N[C@@H](CCCCN)C(=O)C(=O)OC(C)C` [EtSO2-D-3-Tiq-Phe-LysΨ[COCO]-O-iPropyl] belongs 91%; to `CCS(=O)(=O)N[C@H](CC(C)C)C(=O)N[C@@H](CCC(N)=O)C(=O)N[C@@H](CCCCN)C(=O)C(=O)OC(C)C` [EtSO2-D-Leu-Gln-LysΨ[COCO]-O-iPropyl], 94%; to `CCS(=O)(=O)N[C@H](Cc1ccccc1)C(=O)N[C@@H](CC(C)C)C(=O)N[C@@H](CCCCN)C(=O)C(=O)OC(C)C` [EtSO2-D-Phe-Leu-LysΨ[COCO]-O-iPropyl], 98%. In turn, `NCCCCC(NC(=O)CN1CCCCC(NS(=O)(=O)Cc2ccccc2)C1=O)C(=O)C(=O)NCc1ccccc1` (stereo not drawn) [Example 1, BzlSO2-norLeu(cyclo)-Gly-LysΨ[COCO]-NHBzl] had an IC50 in experiment [2] of 640 nM. As to `NCCCCC(NC(=O)CN1CCCCC(NS(=O)(=O)Cc2ccccc2)C1=O)C(=O)C(N)=O` (stereo not drawn) [Example 4, BzlSO2-norLeu(cyclo)-Gly-LysΨ[COCO]—NH2], the IC50 in experiment [3] was determined as 90 nM.

In the case of `CCOC(=O)C(=O)C(CCCCN)NC(=O)C1CCCN1C(=O)C(CC1CCCCC1)NS(=O)(=O)CC` [Example 5, EthylSO2-D-Cha-Pro-LysTr[COCO]-OEt], 280 nM corresponded to half-maximal inhibition in experiment [2] (IC50).

Regarding `CC(C)OC(=O)C(=O)C(CCCCN)NC(=O)C1CCCN1C(=O)C(CC1CCCCC1)NS(=O)(=O)CC12CCC(CC1=O)C2(C)C` [Example 24, (10-Camphor)SO2-D-Cha-Pro-LysΨ[COCO]—O-iPropyl], the IC50 in experiment [3] was 10 nM. In experiment [2], `CC(C)OC(=O)C(=O)C(CCCCN)NC(=O)C1CCCN1C(=O)C(CC1CCCCC1)NS(=O)(=O)Cc1ccccc1` [Example 28, BenzylSO2-D-Cha-Pro-LysΨ[COCO]—O-iPropyl] gave an IC50 of 20 nM. Take `CCS(=O)(=O)NC(Cc1ccc(OC)cc1)C(=O)N1CCCC1C(=O)NC(CCCCN)C(=O)C(=O)N1CCC1` [Example 38, EtSO2-D-Tyr(Me)-Pro -LysΨ[COCO]-Azetidine]: the IC50 in experiment [3] was found to be 110 nM. Same read-out and setting: under `CC(C)OC(=O)C(=O)C(CCCCN)NC(=O)C1CCCN1C(=O)C(NS(=O)(=O)Cc1ccccc1)C(c1ccccc1)c1ccccc1` [Example 40, BzlSO2-D-Dpa-Pro-LysΨ[COCO]—O-iPropyl] stands 20 nM.

As to `NC(N)=NCCC[C@H](NC(=O)[C@@H]1CCCN1C(=O)[C@H](N)Cc1ccccc1)C(=O)CCl` [Org 34593, reference compound], the IC50 in experiment [1] (reference compound, 50% inhibition of the amidolytic reaction at 90 min) amounted to 300 nM.

The values are drawn from patent US6534495B1, “Serine protease inhibitors” (Akzo Nebel, priority 1997, dated 2003).
